In PubChem BioAssay (NCI) one finds TGI and GI50 data, which are given here for three molecules.

Some test systems named below: 786-0 renal; SR leukemia; SF-539 CNS; SNB-19 CNS; SNB-75 CNS; NCI-H226 lung; UACC-62 melanoma; EKVX NSCLC; KM12 colon; NCI-H460 lung.
Holding throughout (experiment): DTP human tumour cell line panel, 48 h

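Cultured in 96-well plates, cells were exposed to test compound for 48 hours across five concentrations. GI50 = concentration required for 50% inhibition of growth. The concentration for full growth arrest is given as TGI.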 Bounds are passed on as bounds.

A word on the TGI: it is the concentration giving total growth inhibition. A low value points to more potent growth arrest. On to `Cc1c(-c2cc(-c3ccccc3)n[nH]c2=O)c2ccccc2n1C`, for which the total growth inhibition concentration (TGI) in the experiment with 786-0 renal, in the experiment on SR leukemia, with SF-539 CNS, in the experiment with SNB-19 CNS, in the experiment with SNB-75 CNS and in the experiment on NCI-H226 lung was over 100 µM throughout. Besides, the TGI with UACC-62 melanoma, in the experiment on EKVX NSCLC, in the experiment with KM12 colon and in the experiment with NCI-H460 lung was over 100 µM throughout.
As usually defined, the GI50 is the concentration giving 50% growth inhibition. As for `COC(=O)C[C@@H]1CC=CC(=O)/C1=C(O)/C=C/c1ccccc1`, the GI50 in the experiment on 786-0 renal is 0.519 µM; in the experiment with SR leukemia, 0.275 µM; in the experiment with SF-539 CNS, 0.433 µM; in the experiment with SNB-19 CNS it was 1.57 µM; in the experiment with SNB-75 CNS it was 1.05 µM; in the experiment with NCI-H226 lung it was 2.05 µM. Besides, the GI50 is 1.42 µM with UACC-62 melanoma, 1.85 µM in the experiment on EKVX NSCLC, 0.233 µM in the experiment on KM12 colon and 2.08 µM in the experiment with NCI-H460 lung. For the same molecule, the TGI is 1.56 µM in the experiment on 786-0 renal; 7.15 µM with SF-539 CNS; 4.84 µM in the experiment on SNB-19 CNS; 3.21 µM with SNB-75 CNS; 7.55 µM with NCI-H226 lung; 3.98 µM in the experiment on UACC-62 melanoma. For the same molecule, the figures for the TGI with EKVX NSCLC, with KM12 colon and in the experiment with NCI-H460 lung were 3.91 µM, 0.705 µM and 8.2 µM, respectively.
Take `CNC(=O)NCCCCC(NC(=O)OCc1ccccc1)C(=O)OCc1ccccc1` (centres undefined): the total growth inhibition concentration (TGI) in the experiment with 786-0 renal is 32.2 µM; with SR leukemia, 61.4 µM; with SF-539 CNS, 38.5 µM; in the experiment with SNB-19 CNS, over 100 µM; in the experiment with SNB-75 CNS it was 41.6 µM; with NCI-H226 lung it was over 100 µM. The TGI in the experiment with UACC-62 melanoma was 47.9 µM; in the experiment with EKVX NSCLC, over 100 µM; in the experiment on KM12 colon it was 71 µM; in the experiment with NCI-H460 lung, over 100 µM.
